Data as given in patent US20110300116A1, “Method for Generating a Recombinant Clonal Cell Line and Novel Reagents for Use in the Method” (CELLAURA TECHNOLOGIES LTD, priority 2007, published 2011).

Biological target: T1, human dopamine D1 receptor (Homo sapiens, UniProt P21728)
T1 construct: expressed in transfected cells; host or cells: CHO cells
Assay: Confocal imaging of fluorescent ligand binding to a mixed population cell line expressing the human dopamine D1 receptor
Assay type: cell-based
Settings: ligand 10 nM; human D1-receptor expressing CHO mixed population before antibiotic resistance selection and prior to FACS sorting; confocal microscopy, FIG. 3
Experimental: In FIG. 3 is shown a confocal microscope image of N-{4-aza-3,7-dioxo-7-[4-(8-methoxy-3-methyl-2,3,4,5-tetrahydro-1H-3-benzazepine-1-yl)phenylamino]heptyl}-6-{2-[4-(2-(4,4-difluoro-4,4a-dihydro-5-(thiophen-2-yl)-4-bora-3a,4a-diaza-s-indacene-3-yl)vinyl) ligand (10 nM) binding to human dopamine D1-receptor expressing CHO “cell line” before antibiotic resistance selection and prior to FACS™ sorting. Red images (light grey) show cells binding the fluorescent D1-receptor antagonist and the blue images (dark grey) show the Hoechst staining of the cellular nuclei. It is clear that only about 20% of the cells are expressing the human dopamine D1 receptor.
A mixed population cell line expressing the human dopamine D1 receptor was screened with novel fluorescent dopamine D1 receptor antagonist N-{4-aza-3,7-dioxo-7-[4-(8-methoxy-3-methyl-2,3,4,5-tetrahydro-1H-3-benzazepine-1-yl)phenylamino]heptyl}-6-{2-[4-(2-(4,4-difluoro-4,4a-dihydro-5-(thiophen-2-yl)-4-bora-3a,4a-diaza-s-indacene-3-yl)vinyl), prepared as in Example 1. […] Using FACS cell sorting, these cells are sorted and separated into populations of cells expressing low, medium or high levels of the dopamine D1 receptor. […] A cell sorter such as the Beckman-Coulter Altra can then be used to put individual cells into single wells of a 96 well plate.

T1 sequence (P21728 whole entry): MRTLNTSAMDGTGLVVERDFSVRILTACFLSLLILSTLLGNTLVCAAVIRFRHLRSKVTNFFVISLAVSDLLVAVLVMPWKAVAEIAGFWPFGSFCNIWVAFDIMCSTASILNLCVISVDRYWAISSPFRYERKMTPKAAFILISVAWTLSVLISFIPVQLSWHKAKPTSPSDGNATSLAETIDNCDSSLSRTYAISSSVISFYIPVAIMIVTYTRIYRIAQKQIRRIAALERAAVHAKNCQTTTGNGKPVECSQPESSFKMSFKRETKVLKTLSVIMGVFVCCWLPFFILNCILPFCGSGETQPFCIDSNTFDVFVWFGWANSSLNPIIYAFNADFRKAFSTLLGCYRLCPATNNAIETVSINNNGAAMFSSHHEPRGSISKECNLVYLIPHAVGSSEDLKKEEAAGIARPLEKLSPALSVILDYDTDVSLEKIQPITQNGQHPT

Compound: CN1CCc2ccc(O)cc2C(c2ccc(NC(=O)CCNC(=O)CCNC(=O)CCCCCNC(=O)COc3ccc(/C=C/C4=[N+]5C(=Cc6ccc(-c7cccs7)n6[B-]5(F)F)C=C4)cc3)cc2)C1 (stereo not shown)
- cells that label with the fluorescent D1-receptor antagonist: about 20%
